Laboratory results published in the METLIN SMRT retention time set (Domingo-Almenara et al. 2019).

Assay: gradient 5% acetonitrile 3 min, to 50% in 2 min, to 85% in 15 min, held 3 min, 100 µL/min
Conditions: column: Zorbax Extend-C18 2.1 x 50 mm; eluents: water / acetonitrile, 0.1% formic acid
How it was run: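 Standards, all pure, were combined into mixtures of ~100 molecules and run at 100 μL/min on a Zorbax Extend-C18 column (2.1 × 50 mm, 1.8 μm) with water and acetonitrile, each containing 0.1% formic acid. A coupled quadrupole time-of-flight mass spectrometer operated in positive and negative ionization mode. Retention time values come from computationally picked adduct peaks, each inspected manually.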

SMILES | RP-LC retention time [s]
O=c1ccc(-c2cccc(Cl)c2)nn1CCc1nc(-c2cccnc2)no1 | 805
Cc1ccc2nc(SCc3noc(CCC(=O)Nc4nc(-c5ccccc5)cs4)n3)[nH]c2c1 | 802
O=C(CCc1c(-c2ccccc2)nc2ccccn12)Nc1ccccc1Br | 683
COc1ccc(NC(=O)CSc2nnc3c4cc(-c5ccc(C)c(C)c5)nn4ccn23)cc1Cl | 997
COc1ccc(-c2nc3ncccn3c2NC2CCCCCC2)cc1OC | 756
CS(=O)(=O)N[C@H]1C[C@@H]2C[C@H]1CN2C(=O)c1ccccc1C(F)(F)F | 705
Cc1c(Cl)cccc1NC(=O)NCC1(N2CCOCC2)CCOC1 (stereo not given) | 614
O=C(Cn1cnc2nc3c(cc2c1=O)CCCC3)Nc1cc(F)ccc1F | 738
COc1ccc2[nH]c(I)c(CCNC(C)=O)c2c1 | 760
COc1ccc(-c2ccc(=O)n(Cc3nc(-c4ccc(Br)cc4)no3)n2)cc1 | 1040
CCCOc1ccc(CN2C[C@@H](CO)[C@H](c3ccncc3)C2)cc1OC | 557
O=C(NCC(F)(F)F)c1ccc(=O)[nH]c1 | 534
O=C(c1cnccn1)N1[C@H]2CC[C@@H]1c1cnc(-c3ccc(F)cc3)nc1C2 | 810
N#Cc1cccc(NC(=O)C(=O)c2ccc[nH]2)c1 | 788
O=C(c1ccccc1)N1CCC(n2c(-c3ccco3)nc3cccnc32)C1 (stereo not given) | 716
O=C1CC(c2cc(F)cc(F)c2)Cc2nc(N3CCN(c4ccc(F)cc4)CC3)ncc21 (stereo not given) | 719
COc1cc(OC)c(NC(=O)N2CCc3nc[nH]c3C2)cc1Cl | 583
COc1cc(C(=O)NCCc2c[nH]c3ccc(F)cc23)cc(OC)c1OC | 781
Cn1c(=O)n(-c2ccc(F)cc2)c2nc(-c3ccccc3Cl)nc(C(N)=O)c21 | 912
CCCOC(=O)C1=C(C)NC2=C(C(=O)C(C(=O)OC)C(C)C2)C1c1cccc(OC)c1 (stereo not given) | 934

SMILES | RP-LC retention time [s]
Cc1nc(C)c(C(=O)Nc2nc(-c3ccc(-c4ccccc4)cc3)cs2)s1 | 1210
O=S(=O)(NCc1ccc(F)cc1)c1ccccc1-c1nc(-c2cccc(F)c2)no1 | 1150
O=C(NC1CC1)c1n[nH]c2c1CCCCCC2 | 719
CCSc1ccccc1C(=O)NCc1cc(-c2ccccc2)on1 | 864
CC1Oc2ccc(S(=O)(=O)N3CCC(C(=O)Nc4ccc(Cl)cc4)CC3)cc2NC1=O (stereo not given) | 778
CN(C)c1cccc(F)c1C(=O)NC(=O)Nc1ccc(Cl)cc1 | 990
O=C(Nc1cccn2c(C3CCC3)nnc12)c1ccc2c(c1)OCO2 | 744
O=C(C1CCCN(c2ncnc3c2nc2n3CCCCC2)C1)N(Cc1ccco1)C1CCCC1 (stereo not given) | 950
CCOc1ccc(C(C)C)cc1S(=O)(=O)Nc1cccnc1 | 722
CSc1nnc(Cc2nnc(SC)n2-c2ccccc2)n1-c1ccccc1 | 784
CC(=O)c1cc2c(cc1NC(=O)c1cn(Cc3ccc(C)cc3)nn1)OCO2 | 1030
CN1CCC(OC2CCN(C(=O)c3ccc(Br)o3)CC2)CC1 | 597
COC[C@@H]1CN(S(=O)(=O)c2cccc(F)c2)C[C@H]1c1ccncc1 | 649
CNC(=O)c1nc(C(C)(C)NC(=O)c2ccnn2C)nc2c1OCO2 | 603
O=C(C1CCC1)N1[C@H]2CC[C@@H]1c1cnc(-c3ccc(F)cc3)nc1C2 | 955
O=C(CCNc1cnc2cnccn12)NCc1cccc(C(F)(F)F)c1 | 608
Cn1c(=O)oc2cc(-c3noc(/C=C/c4ccccc4)n3)ccc21 | 1060
COCCn1cc(CCNC(=O)Nc2ccc(F)cc2F)c2cccnc21 | 729
CNC(=O)c1noc([C@@H]2CC(F)(F)CN2CC2CC2)n1 | 724

Continued, values first:

RP-LC retention time [s] | SMILES
629 | Cc1sc2ccn(Cc3ccc(F)cc3)c(=O)c2c1C(=O)NCCCN1CCOCC1
788 | Cc1nc2cc(N3CC(C(=O)N4CCN(c5ccccc5F)CC4)CC3=O)ccc2o1 (stereo not given)
569 | CN1CCc2[nH]cnc2C12CCN(C(=O)Nc1ccccc1C(F)(F)F)C2 (stereo not given)
614 | O=C(NCCN1CCCCC1)c1ccc2c(=O)n(-c3ccccc3)c(N3CCCC3)nc2c1
1010 | CC1=NS(=O)(=O)N(C)C=C1C(=O)OCc1nc(-c2ccc(Cl)cc2)no1
1110 | O=C(c1cnn(-c2ccccc2)n1)N1CCCC(COCc2ccccc2)C1 (stereo not given)
726 | Cc1ccc(NC(=O)c2cccc3c2SCCC3=O)nc1
621 | Cc1ccc(C)c(-c2cc(C(=O)N3CCN(C)CC3)[nH]n2)c1
1220 | CCc1cc(=O)n(CC(=O)Nc2cccc(Cl)c2)c(-c2ccccc2)n1
750 | Cn1c(=O)c2nc(S(=O)(=O)CCC(=O)Nc3cccc(Br)c3)n(C)c2n(C)c1=O
947 | COc1ccc(CCC(=O)NCC2(c3cccs3)CCCC2)cc1
854 | CC1=C(c2ccc(C)c(C)c2)S(=O)(=O)N=C1N1CCCN(C(=O)C(C)C)CC1
1270 | Cc1cccc(-c2noc(C3CCCN3S(=O)(=O)c3ccc(C)c(Cl)c3)n2)c1 (stereo not given)
662 | COc1cccc(S(=O)(=O)N2CCC(CN3CCCC(C)C3)CC2)c1 (stereo not given)
928 | O=C(Cn1nc(N2CCSCC2)c2ccccc2c1=O)Nc1ccccc1F
948 | Cc1nn(C(C)C(=O)NCCC(C)C)c(=O)c2c(C)n(-c3ccccc3)nc12 (stereo not given)
940 | COc1ccc(C)cc1NC(=O)N1CCCC1c1nc(-c2ccccc2OC)no1 (stereo not given)
731 | COCCN1C(=O)CCc2cc(NC(=O)Cc3ccccc3OC)ccc21
641 | CCOC(=O)Cc1ccc(NC(=O)N2CCN(CC)c3ncccc32)cc1
748 | CC(C)Cn1c(-c2ccc(N(C)C)cc2)nc2ccccc21
796 | CC(=O)c1cccc(NC(=O)Cn2c(=O)n(-c3cccc(C)c3)c(=O)c3c2cc(C)n3C)c1
1170 | Cc1ccc(S(=O)(=O)N2CCc3nc(-c4ccc(F)cc4)ncc3C2)cc1C
747 | CCCNS(=O)(=O)c1cc(-c2c(CC)noc2NC(C)=O)ccc1C
854 | CCOc1cccc(CNC(=O)c2nc(N3CCSCC3)c3cnn(C)c3n2)c1
745 | O=C(NCc1ccccc1F)C1CC(=O)N(c2ccc3c(c2)CCN3C(=O)C2CC2)C1 (stereo not given)
572 | NC(=O)C1CCN(C(=O)Cc2csc(NC(=O)c3ccco3)n2)CC1

RP-LC retention time [s] | SMILES
697 | CCOc1ccc(C(C)NC(=O)c2cn3ccc(C)cc3n2)cc1 (stereo not given)
630 | COc1ccc(-c2noc(-c3ccc(N4CCN(C)CC4)nn3)n2)cc1
897 | Cc1sc2ccn(CC(C)C)c(=O)c2c1C(=O)N1CCCCCC1
556 | Cc1cc(C)c2c(N3CCCCC3)nc(C(=O)N3CCN(C(C)C)CC3)nc2n1
551 | CCNc1cc(N2CCCC(CCC(=O)NCCN3CCCCC3)C2)ncn1 (stereo not given)
829 | O=C(c1cc2ccccc2o1)N1CCN(C(=O)C2COc3ccccc3O2)CC1 (stereo not given)
775 | COc1ccc(CNC(=O)c2nc(N3CCSCC3)c3cnn(C)c3n2)cc1
813 | Cc1ccccc1Cn1nc2ccc(S(=O)(=O)N3CCCCC3)cn2c1=O
682 | CCCCS(=O)(=O)N1CCC(N2CC(F)(F)C[C@H]2COc2cccnc2)CC1
656 | Cc1ccccc1C1CC(=O)c2c(C)nc(N3CCN(CCO)CC3)nc2C1 (stereo not given)
583 | Cc1ccc(C(=O)N2CCC(Nc3ncnc4c3CCC4)CC2)cn1
882 | Cc1nnc(-c2ccc3ccn(CC(=O)Nc4ccc(C)c(C)c4)c3c2)o1
902 | O=C(Cn1ncc2c3ccccc3n(Cc3ccccc3)c2c1=O)N1CCN(c2ncccn2)CC1
843 | Cc1ccc(-c2csc(Nc3cc(C)ccn3)n2)cc1
594 | O=C(NCC1CCCO1)c1ccc2ncnc(N3CCCCC3)c2c1 (stereo not given)
797 | CCCC(=O)N1CCCN(C2=NS(=O)(=O)C(c3ccc(C)cc3)=C2C)CC1
618 | CNC(=O)C1CCCN(c2nc3ncn(CC(=O)NCc4ccc5c(c4)OCO5)c(=O)c3s2)C1 (stereo not given)
862 | CC1(C(=O)NCc2ccccc2)CCN(S(=O)(=O)c2cccc(C#N)c2)CC1
769 | CCOc1cc(=O)n2c(c1C(=O)Nc1ccc(Cl)cc1)CCCC2
922 | O=C(NCc1ccc(C(F)(F)F)cc1)C1=C2CCCN2c2ccccc2S1(=O)=O
566 | Cn1ncc2c(N3CCSCC3)nc(C(=O)NCc3ccncc3)nc21
556 | O=C(c1cc(-c2cccnc2)n[nH]1)N1CCCC(C(=O)N2CCN(C(=O)c3ccco3)CC2)C1 (stereo not given)
840 | Cc1ccc(N2C=NS(=O)(=O)c3cccnc32)cc1C
931 | Cn1ncc2c3ccccc3n(CCCC(=O)N3CCc4ccccc4C3)c2c1=O
880 | CC1CCN(c2cc(-n3cnc(C(=O)N4CCN(c5ncccn5)CC4)c3)ncn2)CC1
